Entries after “also recorded” stand apart in the source; their conditions may differ. Like-named read-outs stand apart in the source and are kept apart here.

For series [1], the target named is Arf6 (Homo sapiens (Human), UniProt P62330). The experiment in a line: Fluorometric assay for Arf6 nucleotide exchange catalyzed by ARNO Sec7 domain (GTP-BODIPY FL). The class given is biochemical.
Series [2] deals with oxygen-induced retinopathy. The experiment in a line: Oxygen-induced retinopathy (OIR) in mice. The class given is in vivo. Conditions: 5 μg intraocular Days 12 and 15, measured Day 17. The procedure: In the experiment, mice pups were placed in a 75% oxygen environment from Days 5-12. The mice were returned to a normal oxygen environment on Day 13. The test compounds were administered (5 μg) by intraocular injection on Days 12 and 15, and the area of neovascularization was measured on Day 17. Compound 38 was compared with SU4312 in oxygen-induced retinopathy (OIR) in mice (see FIG. 11). […]

For series [3], the system named is collagen-induced arthritis. The experiment in a line: Mouse model of collagen-induced arthritis. The class given is in vivo. Conditions: mice, 14 days; Compound 4 10, 30, 60 mg/kg BID; Enbrel 10 mg/kg QD. The procedure: In the experiment, mice were immunized with collagen on Days 1 and 21, and randomized to treatment groups on or around Day 28, then subject to fourteen days of treatment with a test compound. Vehicle (●), Compound 4 at 10 mg/kg (▴), Compound 4 at 30 mg/kg (▾), Compound 4 at 60 mg/kg (♦), or Enbrel (▪; 10 mg/kg) was given. Compound 4 was given twice daily (BID); Enbrel was given once daily (QD); and vehicle was given twice daily (BID).

The target in series [4] is Arf6 (Mus musculus (Mouse), UniProt P62331). The experiment in a line: Arf6 pulldown assay (GTP-bound Arf6, GST-Gga3, Western blot). The series is classed as cell-based. As to conditions: NIH3T3 cells, 4 hours incubation. The procedure:
The cell cultures were incubated in the presence of test compounds for 4 hours followed by pull-down of GTP-bound Arf6 from cell lysates using recombinant GST-Gga3 immobilized on glutathione agarose and Western blot analysis.
Arf6 pulldown assay: Assessment of intracellular levels of active Arf6 may be a direct mechanism-based approach for monitoring on-target cellular activities of active Arf6 inhibitors. A commercially available pull-down technique, which relies on recombinant Gga3 protein as a sensor of the GTP-bound state for the members of Arf protein family, can be employed for this purpose (see, e.g., Shiba T, Kawasaki M, Takatsu H, Nogi T, Matsugaki N, Igarashi N, Suzuki M, Kato R, Nakayama K, Wakatsuki S. Molecular mechanism of membrane recruitment of GGA by ARF in lysosomal protein transport. Nat Struct Biol. 2003 May; 10(5):386-93).
The vendor's procedure was modified from 10-cm culture dish to 24-well plate format and adapted to a number of different cell lines, including cultured mouse embryonic fibroblasts NIH 3T3 due to its robust response to Arf6 inhibitors observed in the proof-of-principle studies (see FIG. 2).
A general note: In western blotting, separated proteins are transferred to a membrane and probed.

The test system of series [5] is LOX melanoma cells. The experiment in a line: Cell invasion assay (Matrigel Invasion Chambers). The class given is cell-based. An excerpt: Cell invasion assay: This assay uses Matrigel Invasion Chambers (BD Biosciences) and monitors cell penetration through 8.0 μm filters coated with a solubilized basement membrane matrix, which serves as barrier for non-invading cells (see, e.g., Albini A, Iwamoto Y, Kleinman H K, Martin G R, Aaronson S A, Kozlowski J M, McEwan R N. A rapid in vitro assay for quantitating the invasive potential of tumor cells. Cancer Res. 1987 Jun. 15; 47(12):3239-45).

The subject of series [6] is LOX melanoma cells. The experiment in a line: Cell proliferation assay (WST-8), LOX. Conditions: concentrations greater than 1 μM. The series is classed as cell-based. The source says:
(§1) Cell proliferation assay: This assay employs WST-8 colorimetric readout (Dojindo) and relies on the total activity of mitochondrial dehydrogenases as a measure of the number of viable cells over time.

The test system of series [7] is LN-229 glioblastoma cells. The experiment in a line: Cell proliferation assay (WST-8), LN-229. The series is classed as cell-based. Conditions: concentrations greater than 1 μM.
Excerpt: as §1
(In general: Tetrazolium dyes change colour on reduction, which living cells bring about.)

Series [8] relates to VEGF-induced retinal permeability. In words: VEGF-induced retinal permeability in mice (Evans blue dye). The class given is in vivo. The procedure:
In the experiment, VEGF (50 ng) and either Compound 38 or 65 (500 ng) or NAV-3745 (500 ng) were given to mice in a single intraocular injection. Evans blue dye (EBD) was given via IV approximately 6 hours after the injection, and the retinas were harvested after an additional 2 hours. Retinal permeability was measured on Day 2 after an overnight extraction of EBD in formamide, at OD 620-740 nm.
In the experiment, VEGF (50 ng) and the test compound were given to mice in a single intraocular injection. Avastin was given at a dose of 20 μg, Compound 38 at either 50 ng or 500 ng (as noted in FIG. 7), and SU4312 at 5 μg. As with the previous experiment, Evans blue dye (EBD) was given via IV approximately 6 hours after the injection, and the retinas were harvested after an additional 2 hours. Retinal permeability was measured on Day 2 after an overnight extraction of EBD in formamide, at OD 620-740 nm.

Series [9] has the same test system. The experiment in a line: VEGF-induced retinal permeability in rats (Evans blue dye). The series is classed as in vivo. The procedure:
In the experiment, VEGF (500 ng) and Avastin (200 μg) were given to rats in a single intraocular injection on Day 1. Compound 38 (60 mg/kg) was administered by IP injection 1 hour prior to VEGF on Day 1. Rats were given Evans blue dye (EBD) via IV infusion on Day 2, and the retinas were harvested after an additional 1.5 hours. The retinas were dissected and incubated overnight in formamide. Vascular leak was calculated on Day 3.

Series [10] concerns Choroidal Neovascularization (CNV). The experiment in a line: Laser-induced choroidal neovascularization (CNV) in mice. The series is classed as in vivo. Conditions: 5 μg, 0.5 μg and 0.05 μg on Days 0 and 7, measured Day 14. The procedure:
In the experiment on Day 0, the Bruch's membrane of each eye was disrupted with a laser. On Days 0 and 7, test compounds were administered, and on Day 14, the area of CNV was measured. Commercially available compound SU4312 was used as a positive control. Compound 38 was dosed at 5 μg, 0.5 μg, and 0.05 μg, as noted in FIG. 9.

The subject of series [11] is LPS-induced acute lung injury. The experiment in a line: LPS-induced acute lung injury in mice (BALF analysis). The class given is in vivo. As to conditions: 24 hours after LPS, Compound 38 60 mg/kg, dexamethasone 5 mg/kg. The procedure:
In the experiment, LPS (5 mg/kg) was given by intra-tracheal instillation. Dexamethasone (5 mg/kg) was given as a positive control 2 hours after the LPS. Bronchoalveolar fluid (BALF) was analyzed for cell count and protein 24 hours after the LPS.

The next series deals with H1N1 virus. Conditions: IP QD five days; Compound 65 20 mg/kg, ribavirin 75 mg/kg.
Where [12] appears, read: 20 nM Arf6 assay, read-out: IC50 (μM) 20 nM Arf6.
The mark [13] stands for this setting: 200 nM Arf6 assay, read-out: IC50 (μM) 200 nM Arf6.
Setting [14] is: mice, 500 ng single intraocular injection with VEGF 50 ng (FIG. 6).

Sequence of Arf6 (Homo sapiens (Human), UniProt P62330) (P62330 14-175): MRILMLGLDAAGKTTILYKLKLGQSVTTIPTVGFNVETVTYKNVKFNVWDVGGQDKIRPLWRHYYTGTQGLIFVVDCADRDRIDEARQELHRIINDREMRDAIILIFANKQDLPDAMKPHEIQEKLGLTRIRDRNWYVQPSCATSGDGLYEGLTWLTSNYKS
Sequence of Arf6 (Mus musculus (Mouse), UniProt P62331) (P62331 whole entry): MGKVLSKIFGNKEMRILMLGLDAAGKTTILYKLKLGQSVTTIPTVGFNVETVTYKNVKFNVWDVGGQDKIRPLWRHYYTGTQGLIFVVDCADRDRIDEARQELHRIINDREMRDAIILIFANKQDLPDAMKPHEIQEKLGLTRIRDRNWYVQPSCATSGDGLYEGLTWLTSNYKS

What is called IC50 is the point on the concentration scale where inhibition reaches its midpoint. For the compound `O=c1cc(-c2cccc(Oc3ccccc3)c2)[nH]c2c(-c3ccc(Cl)c(Cl)c3)c(C(F)(F)F)nn12` [Compound 4], the 50% inhibitory concentration (IC50) amounted to 0.52 µM at Arf6 [1] (setting [12]) and 0.46 µM on Arf6 [1] (setting [13]). Further, the area of neovascularization result in series [2] is on record as “reduced the area of neovascularization”. The “inflammation as measured by the arthritic index” value in [3] is “reduced inflammation”.

As to `O=c1cc(-c2ccc([N+](=O)[O-])cc2)[nH]c2c(-c3ccc(Cl)cc3)c(Cc3ccccc3)nn12` [Compound 38], the figures for the IC50 at Arf6 [1] (setting [12]) and at Arf6 [1] (setting [13]) were 1.8 µM and 1.4 µM, respectively. On Arf6 [4], the “Inhibition of Arf6 activation (GTP-bound Arf6)” value is recorded as “Inhibition of Arf6 activation”. Further, the “FBS-induced LOX cell invasion through Matrigel” value in the series with LOX melanoma cells [5] (1 μM) was “substantially inhibit, or completely inhibit”. The “inhibition of melanoma cell invasion” value in the series with LOX melanoma cells [5] (LOX melanoma cells) is listed as “can inhibit invasion; also recorded: more potent inhibitor of melanoma cell invasion than SecinH3”. For the same compound, in the series on LOX melanoma cells [6], the “inhibition of LOX cell proliferation” value is listed as “can inhibit proliferation; also recorded: potent inhibitor”. Further, the “inhibition of LN-229 cell proliferation” value in series [7] is “can inhibit proliferation; also recorded: potent inhibitor”. Also, the VEGF-induced retinal permeability entry in [8] (setting [14]) is listed as “reduced VEGF-induced retinal permeability”; in series [8] (mice, single intraocular injection, Compound 38 50 ng or 500 ng, Avastin 20 μg, SU4312 5 μg (FIG. 7)), “reduced VEGF-induced retinal permeability”; in series [9] (rats, Compound 38 60 mg/kg IP, Avastin 200 μg intraocular (FIG. 8)), “reduced VEGF-induced retinal permeability”. The “area of CNV” value in [10] is recorded as “reduced the area of CNV in a dose-dependent manner”. For the same compound, the area of neovascularization result in [2] is “reduced the area of neovascularization”. The “number of cells in the lung fluid (BALF)” value in series [11] is reported as “reduced the number of cells”. Also, the “protein concentration in the lung fluid (BALF)” value in series [11] is “reduced”.

For `O=c1cc(Cc2ccccc2)[nH]c2c(-c3ccc(Cl)cc3)c(C(F)(F)F)nn12` [Compound 65], the IC50 at Arf6 [1] (setting [12]) was determined as 3.7 µM; on Arf6 [1] (setting [13]), 4.9 µM. For the same compound, the VEGF-induced retinal permeability result in [8] (setting [14]) is reported as “reduced VEGF-induced retinal permeability”. Besides, the “mortality of mice infected with H1N1 virus” value with H1N1 virus is “reduced the mortality of mice nearly as well as ribavirin”.

Regarding Avastin, the VEGF-induced retinal permeability entry is “reduced VEGF-induced retinal permeability” in [8] (mouse, not told) and “reduced VEGF-induced retinal permeability” in series [9] (rat, not told, ip, 60 mg/kg).

Enbrel: the “inflammation as measured by the arthritic index” value in series [3] is listed as “reduced inflammation”.

Take SU4312 [reference compound]: in [8] (mouse, not told), the VEGF-induced retinal permeability result is “little effect”. Also, in series [2], the area of neovascularization entry is listed as “reduced the area of neovascularization”.

For the origin of these results see patent US10849901B2, “Arf6 inhibitors and methods of synthesis and use thereof” (Navigen, Inc., priority 2014, dated 2020).
